The values below come from publication PMC5342071, “A first generation inhibitor of human Greatwall kinase, enabled by structural and functional characterisation of a minimal kinase domain construct” (Oncotarget, 2016).

This assay deals with T1, hGWL-KinDom (Homo sapiens, UniProt Q96GX5).
T1 construct: that encoded amino acids (aa) 1-194 + ‘RTFC’ + 740-879 of hGWL; GST (rhinovirus 3C-protease cleavable) (N, cleaved yes); made in house; host or cells: E. coli Rosetta2(DE3)
Put plainly: Thermal shift assay. The format is binding. The following applies: read-out: temperature midpoint shift (ΔTm). On the procedure: Assays were performed using a modified version of the protocol previously described in [41].
The protein crystallised in spacegroup P212121, with two molecules comprising the asymmetric unit. For one molecule (chain A), amino acids 30-72, 86-177 and 740-854 are readily discernible in electron density maps, whilst for the other (chain B) amino acids 30-72, 86-177 and 740-854 are readily discernible.
For thermal denaturation, samples containing protein at 1.5 µM and 5 x SYPRO Orange (diluted from a 5000 x stock supplied in DMSO; Sigma-Aldrich, Gillingham, UK) were prepared in sample buffer: 20 mM HEPES.NaOH pH 7.5, 300 mM NaCl, 0.5 mM TCEP. Denaturation curves were monitored in 96-well PCR plates using a Roche LightCycler 480 II, with 465 and 580 nm filters for excitation and emission wavelengths, respectively. The program was as follows: 1 min at 20°C, followed by a continuous increment of 0.03°C/s to a final temperature of 85°C. Temperature midpoints (Tm) for each folded to unfolded transition were determined by non-linear regression fitting of a modified Boltzmann model to normalized data in Prism 6.0 (version 6.0h, GraphPad Software, La Jolla, CA USA). […]
After stopping the above non-radioactive kinase assay with 1 volume of Kinase-Glo Max reagent the mixture was allowed to incubate for a further 15 min. […] As this assay measures ATP, activity or ATP turnover was measured as the -ΔRLU. […]

SMILES strings stand for the structures.

T1 sequence (Q96GX5 with tags, fused parts or gaps limits assumed): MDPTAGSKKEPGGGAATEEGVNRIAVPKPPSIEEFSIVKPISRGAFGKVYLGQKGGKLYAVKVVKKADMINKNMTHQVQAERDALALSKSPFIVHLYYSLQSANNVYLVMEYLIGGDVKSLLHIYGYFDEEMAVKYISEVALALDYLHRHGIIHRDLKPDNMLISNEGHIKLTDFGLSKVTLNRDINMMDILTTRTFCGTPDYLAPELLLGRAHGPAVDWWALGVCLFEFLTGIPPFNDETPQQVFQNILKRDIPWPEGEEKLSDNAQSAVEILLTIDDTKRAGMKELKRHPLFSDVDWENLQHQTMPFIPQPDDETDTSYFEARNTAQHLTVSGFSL

Turning to `CN[C@@H]1C[C@H]2O[C@@](C)([C@@H]1OC)n1c3ccccc3c3c4c(c5c6ccccc6n2c5c31)C(=O)NC4` [STU, staurosporine], the ΔTm at 10 µM was determined as 8.2 °C.
